Measurements: ChEMBL document CHEMBL3588845, “Protozoan Parasite Growth Inhibitors Discovered by Cross-Screening Yield Potent Scaffolds for Lead Discovery” (J Med Chem, 2015)
pEC50: −log10 of the molar value.

Assays:
Trypanosoma cruzi = test: Antiparasite activity against Trypanosoma cruzi Tulahuen expressing beta-galactosidase assessed as growth inhibition incubated for 96 hrs by CPRG dye based assay; format: functional, organism-based
Leishmania major [1] = test: Antiparasite activity against Leishmania major promastigotes assessed as growth inhibition incubated for 44 hrs by alamar blue dye based fluorescence assay; format: functional, organism-based
Leishmania major [2] = test: Antiparasite activity against luciferase-expressing Leishmania major amastigotes isolated from infected in mouse RAW264.7 cells assessed as growth inhibition incubated for 96 hrs by luciferase reporter gene assay; format: functional, organism-based; conditions: RAW264.7, 96 h
Plasmodium falciparum [3] = test: Antiparasite activity against Plasmodium falciparum D6 assessed as growth inhibition incubated for 72 hrs by SYBR green fluorescence assay; format: functional, organism-based; conditions: D6, 72 h
[4] = Toxicity against human HepG2 cells incubated for 48 hrs by MTT assay; format: cell-based; conditions: read-out: TC50
Trypanosoma brucei = test: Antiparasite activity against Trypanosoma brucei 427 assessed as growth inhibition incubated for 48 hrs by PrestoBlue based fluorescence assay; format: functional, organism-based; conditions: Trypanosoma brucei, 427, 48 h
Plasmodium falciparum [5] = test: Antiparasite activity against drug resistant Plasmodium falciparum W2 assessed as growth inhibition incubated for 72 hrs by SYBR green fluorescence assay; format: functional, organism-based; conditions: W2, 72 h
Plasmodium falciparum [6] = test: Antiparasite activity against drug resistant Plasmodium falciparum C235 assessed as growth inhibition incubated for 72 hrs by SYBR green fluorescence assay; format: functional, organism-based; conditions: C235, 72 h

Structure (SMILES)	pEC50 (Trypanosoma cruzi)	pEC50 (Leishmania major [1])	pEC50 (Leishmania major [2])	pEC50 (Plasmodium falciparum [3])	CC50 at 48 h [4] [nM]	pEC50 (Trypanosoma brucei)	pEC50 (Plasmodium falciparum [5])	pEC50 (Plasmodium falciparum [6])
CN1CCCN(S(=O)(=O)c2ccc(-c3ccc4ncnc(Nc5ccc(OCc6cccc(F)c6)c(Cl)c5)c4c3)cc2)CC1	6.29	5.44	5.68	7.34	1100			
CN1CCCN(S(=O)(=O)c2ccc(-c3ccc4nncc(Nc5ccc(OCc6cccc(F)c6)c(Cl)c5)c4c3)cc2)CC1	5.66	5.39	5.97	7.57	7300	6.24	7.20	7.72
CN1CCN(S(=O)(=O)c2ccc(-c3cc4c(Nc5ccc(OCc6cccc(F)c6)c(Cl)c5)ncnc4s3)cc2)CC1					> 15000			
CN1CCCN(S(=O)(=O)c2ccc(-c3cc4ncnc(Nc5ccc(OCc6cccc(F)c6)c(Cl)c5)c4s3)cc2)CC1					> 15000			
CN1CCCN(S(=O)(=O)c2ccc(-c3cc4c(Nc5ccc(OCc6cccc(F)c6)c(Cl)c5)ncnc4s3)cc2)CC1					> 15000			
Fc1cccc(COc2ccc(Nc3ccnc4ccc(-c5cccc(N6CCOCC6)c5)cc34)cc2Cl)c1	5.18	6.05	5.40	7.46	10000	6.00	7.02	7.37
Fc1cccc(COc2ccc(Nc3ccnc4cc(-c5cccc(N6CCOCC6)c5)ccc34)cc2Cl)c1	5.57	5.85	5.43	7.21	> 5000	5.92	6.74	7.10
O=S(=O)(c1ccc(-c2ccc3c(Nc4ccc(OCc5ccccc5)c(Cl)c4)ccnc3c2)cc1)N1CCOCC1	5.46	< 5.82	< 5.82	7.80	> 3000	6.62	7.36	7.74
CN1CCN(S(=O)(=O)c2ccc(-c3ccc4nccc(Nc5ccc(OCc6cccc(F)c6)c(Cl)c5)c4c3)cc2)CC1	5.28	6.22	5.70	< 4.80	6400	6.34	< 4.80	< 4.80
CN1CCCN(S(=O)(=O)c2ccc(-c3ccc4nccc(Nc5ccc(OCc6cccc(F)c6)c(Cl)c5)c4c3)cc2)CC1	6.03	6.40	5.64	7.07	4300	6.85	7.09	6.96
CN1CCCN(S(=O)(=O)c2ccc(-c3ccc4c(Nc5ccc(OCc6cccc(F)c6)c(Cl)c5)ccnc4c3)cc2)CC1	6.14	6.40	6.05	7.03	5000	7.06	7.18	7.17
O=S(=O)(c1ccc(-c2ccc3ccnc(Nc4ccc(OCc5ccccc5)c(Cl)c4)c3c2)cc1)N1CCOCC1	< 4.30	< 4.82	< 4.82	6.06	> 25000	< 5.60	5.26	5.40
O=S(=O)(c1ccc(-c2ccc3c(Nc4ccc(OCc5ccccc5)c(Cl)c4)nccc3c2)cc1)N1CCOCC1	< 4.30	< 4.82	< 5.52	5.47	> 5000	7.04	5.47	5.47
CN1CCN(S(=O)(=O)c2ccc(-c3ccc4ccnc(Nc5ccc(OCc6cccc(F)c6)c(Cl)c5)c4c3)cc2)CC1	< 4.30	< 4.82	< 4.82	7.40	> 15000	5.74	6.70	7.05
CN1CCN(S(=O)(=O)c2ccc(-c3ccc4c(Nc5ccc(OCc6cccc(F)c6)c(Cl)c5)nccc4c3)cc2)CC1	< 4.30	5.57	< 4.82	6.96	> 15000	7.00	6.44	6.74
CN1CCCN(S(=O)(=O)c2ccc(-c3ccc4ccnc(Nc5ccc(OCc6cccc(F)c6)c(Cl)c5)c4c3)cc2)CC1	5.33	5.89	5.66	7.07	> 15000	6.14	6.57	7.00
CN1CCCN(S(=O)(=O)c2ccc(-c3ccc4c(Nc5ccc(OCc6cccc(F)c6)c(Cl)c5)nccc4c3)cc2)CC1	4.48	6.36	5.36	6.39	> 15000	6.41	5.66	6.00
Fc1cccc(COc2ccc(Nc3cnnc4ccc(-c5cccc(N6CCOCC6)c5)cc34)cc2Cl)c1	< 4.30	< 4.82	< 4.82	6.27	> 15000	5.96	5.82	6.16

Structure (SMILES)	pEC50 (Trypanosoma cruzi)	pEC50 (Leishmania major [1])	pEC50 (Leishmania major [2])	pEC50 (Plasmodium falciparum [3])	CC50 at 48 h [4] [nM]	pEC50 (Trypanosoma brucei)	pEC50 (Plasmodium falciparum [5])	pEC50 (Plasmodium falciparum [6])
Fc1cccc(COc2ccc(Nc3cnnc4cc(-c5cccc(N6CCOCC6)c5)ccc34)cc2Cl)c1	4.35	5.01	< 4.82	6.70	11000	6.05	6.64	6.39
O=S(=O)(c1ccc(-c2ccc3nncc(Nc4ccc(OCc5ccccc5)c(Cl)c4)c3c2)cc1)N1CCOCC1	< 4.30	< 4.82	< 4.82	6.09	> 15000	5.92	6.03	5.85
O=S(=O)(c1ccc(-c2ccc3c(Nc4ccc(OCc5ccccc5)c(Cl)c4)cnnc3c2)cc1)N1CCOCC1	4.82	< 4.82	< 4.82	6.82	> 11000	5.92	6.28	6.52
CN1CCN(S(=O)(=O)c2ccc(-c3ccc4nncc(Nc5ccc(OCc6cccc(F)c6)c(Cl)c5)c4c3)cc2)CC1	< 4.30	< 4.82	5.72	6.89	> 15000	6.01	6.54	6.85
CN1CCN(S(=O)(=O)c2ccc(-c3ccc4c(Nc5ccc(OCc6cccc(F)c6)c(Cl)c5)cnnc4c3)cc2)CC1	5.51	5.24	5.70	7.85	> 15000	6.00	7.26	7.60
Fc1cccc(COc2ccc(Nc3nncc4ccc(-c5cccc(N6CCOCC6)c5)cc34)cc2Cl)c1	< 4.30	< 4.82	5.77	6.96	> 15000	6.54	6.21	6.40
Fc1cccc(COc2ccc(Nc3nncc4cc(-c5cccc(N6CCOCC6)c5)ccc34)cc2Cl)c1	< 4.30	< 4.82	5.66	6.62	> 15000	5.85	6.21	6.47
O=S(=O)(c1ccc(-c2ccc3cnnc(Nc4ccc(OCc5ccccc5)c(Cl)c4)c3c2)cc1)N1CCOCC1	< 4.30	< 5.47	< 5.40	6.27	> 5200	6.07	5.77	5.92
O=S(=O)(c1ccc(-c2ccc3c(Nc4ccc(OCc5ccccc5)c(Cl)c4)nncc3c2)cc1)N1CCOCC1	< 4.30	< 4.82	< 4.82	6.96	> 15000	6.00	6.46	6.77
CN1CCN(S(=O)(=O)c2ccc(-c3ccc4cnnc(Nc5ccc(OCc6cccc(F)c6)c(Cl)c5)c4c3)cc2)CC1	< 4.30	< 5.49	< 5.40	6.89	> 5000	5.70	6.37	6.42
Fc1cccc(COc2ccc(Nc3ncnc4cc(-c5cccc(N6CCOCC6)c5)sc34)cc2Cl)c1					> 15000			
Fc1cccc(COc2ccc(Nc3ncnc4sc(-c5cccc(N6CCOCC6)c5)cc34)cc2Cl)c1					> 15000			
O=S(=O)(c1ccc(-c2cc3ncnc(Nc4ccc(OCc5ccccc5)c(Cl)c4)c3s2)cc1)N1CCOCC1					> 5000			
O=S(=O)(c1ccc(-c2cc3c(Nc4ccc(OCc5ccccc5)c(Cl)c4)ncnc3s2)cc1)N1CCOCC1					> 15000			
CN1CCN(S(=O)(=O)c2ccc(-c3cc4ncnc(Nc5ccc(OCc6cccc(F)c6)c(Cl)c5)c4s3)cc2)CC1					> 15000			
C[C@@H]1[C@H](O)[C@@H](C)/C=C/C=C/C=C/C=C/C=C/C=C/C=C/[C@H](O[C@@H]2O[C@H](C)[C@@H](O)[C@H](N)[C@@H]2O)C[C@@H]2O[C@](O)(C[C@@H](O)C[C@@H](O)[C@H](O)CC[C@@H](O)C[C@@H](O)CC(=O)O[C@H]1C)C[C@H](O)[C@H]2C(=O)O [AMPHOTERICIN B]		7.05	7.33					
O=C(Cn1ccnc1[N+](=O)[O-])NCc1ccccc1 [BENZNIDAZOLE]	5.92							
Cc1ccc(C(=O)Nc2ccc(S(=O)(=O)O)c3cc(S(=O)(=O)O)cc(S(=O)(=O)O)c23)cc1NC(=O)c1cccc(NC(=O)Nc2cccc(C(=O)Nc3cc(C(=O)Nc4ccc(S(=O)(=O)O)c5cc(S(=O)(=O)O)cc(S(=O)(=O)O)c45)ccc3C)c2)c1 [SURAMIN]						7.40		
